This is an account of results in ChEMBL document CHEMBL3853303, “Nazumazoles D-F, Cyclic Pentapeptides That Inhibit Chymotrypsin, from the Marine Sponge Theonella swinhoei” (J Nat Prod, 2016).

Molecules are shown by their SMILES. pIC50: −log10 of the molar value.

The nature of this assay: Inhibition of bovine alpha-chymotrypsin using Suc-Leu-Leu-Val-Tyr 4-methylcoumaryl-7-amide as substrate assessed as formation of MCA after 1 hr by fluorometric method. Also noted: species or system Bos taurus.
By pIC50 is commonly meant the negative decadic logarithm of the IC50, by convention in mol/L. On to `CCC[C@@H]1NC(=O)[C@@H]2C[C@H](C)CN2C(=O)[C@@H](NC=O)CNC(=O)[C@@H](CC)NC(=O)c2coc(n2)[C@H](C)NC(=O)C1=O`, for which the pIC50 was 5.70.

`CCC[C@@H]1NC(=O)[C@@H]2C[C@H](C)CN2C(=O)[C@@H](NC=O)CNC(=O)[C@@H](CO)NC(=O)c2coc(n2)[C@H](C)NC(=O)C1=O`: the pIC50 is 5.52.

For the molecule `CC(C)C[C@@H]1NC(=O)[C@@H]2C[C@H](C)CN2C(=O)[C@@H](NC=O)CNC(=O)[C@@H](CO)NC(=O)c2coc(n2)[C@H](C)NC(=O)C1=O`, the pIC50 is 5.00.
